Results published in PMC9668969 (Nature Communications, 2022).
Values joined by “and” are separate entries in the source; they are usually repeats but may differ in a detail not shown here. Identical values can stand only once.

Columns and labels:
WT ELIC [1] = experiment: Tryptophan stopped-flow fluorescence measurements (rapid mixing with agonist, DDM); assay type: biochemical, Erwinia chrysanthemi; details: for Normalized change in TRP fluorescence: single experiments
Procedure: To measure the tryptophan (Trp) fluorescence emission of ELIC, WT or W206F ELIC was diluted to 3 ml (0.02 mg/ml) and an emission spectrum was collected in a quartz fluorescence cell using a Fluoromax Plus Spectrofluorometer (Horiba Scientific). Excitation was set at 295 nm and an emission spectrum was collected from 320 to 380 nm. Trp fluorescence measurements with rapid mixing of agonist was carried out using the SX20 stopped-flow spectrofluorometer, outfitted with a 295 nm LED excitation source. Purified ELIC was diluted to 0.1 mg/ml in Trp Stopped-flow Buffer A (10 mM Tris pH 7.5, 100 mM NaCl, 0.05% DDM). A single mixing experiment was performed by mixing ELIC with equal volumes of Buffer A + propylamine. Propylamine was prepared at varying concentrations at 2x the final concentration. The instrument dead time was ~1 ms, enabling capture of most of the time course of change in Trp fluorescence. The time course of decrease in Trp fluorescence after rapid mixing with propylamine was fit to a single exponential to obtain a time constant for the rate of decrease and a measure of the extent of decrease. All replicates were taken from distinct samples.

WT ELIC [2] = experiment: Asymmetric liposome stopped-flow Tl+ flux assay (no exchange vs exchange, 25 mol% outer leaflet POPG); assay type: biochemical, Erwinia chrysanthemi; parameters: key to Tl+ flux quenching rate, Avg. / Tl+ flux quenching rate: Tl+ influx rate kt at 2 ms from stretched-exponential fit (Eq. 2b); details: for Tl+ flux quenching rate, Avg. / Tl+ flux quenching rate: Exchange: WT in 3:1 PC:PE, 25% POPG in outer leaflet by beta-CD; for Tl+ flux quenching rate: single experiments
Procedure: The fluorescence sequential-mixing stopped-flow liposomal flux measurements were carried using an SX20 stopped-flow spectrofluorometer (Applied Photophysics) and Pro-Data SX software[13],[30]. 7.5 mg of the respective lipid mixture (POPC, 1:1 POPC: POPE, 1:1 POPC:POPG, 3:1 POPC:POPE, 3:1 POPC:POPG, 2:1:1 POPC:POPE:POPG) was dried in a glass vial to a thin film under a constant stream of N2. The lipids were then further dried under vacuum in a desiccator overnight. The following day the lipids were hydrated in 500 µl of reconstitution buffer (100 mM NaNO3, 10 mM HEPES, pH 7) (Buffer R), 250 µl of 75 mM 8-Aminonaphthalene-1,3,6-Trisulfonic Acid (ANTS, ThermoFisher Scientific) in buffer R, and doped with ~18 mg of CHAPS (Anatrace). The mixture was vortexed and then sonicated with heat until completely solubilized. Following the sonication, the solution was brought to RT then 3.5 µl of 6.7 mg/ml ELIC in Buffer A with 0.02% DDM was added (3 µg per mg of lipid). This combined solution was incubated at RT for 30 min, followed by the addition of 1 ml of 1:1 v/v SM-2 BioBeads in Buffer R and an additional 250 µl of 75 mM ANTS in Buffer R. This mixture was incubated at RT for 2.5 hr with gentle mixing. The liposome suspension was then extruded with an Avanti mini-extruder and 0.1 µm membrane (30×). The extruded liposomes were stored at 13 °C overnight with gentle rotation. The next day, the liposomes were diluted to 2.5 mL using assay buffer (140 mM NaNO3, 10 mM HEPES, pH 7) (Stopped-flow Buffer A), loaded into a PD-10 desalting column (Cytiva), eluted with 3 mL of Stopped-flow Buffer A and subsequently diluted 5-fold with Stopped-flow Buffer A.
Using propylamine as the agonist, the assay and analysis was carried out as previously described[13],[30]. ELIC-containing liposomes were first mixed 1:1 with Buffer A containing 2× the concentration of propylamine. After a variable delay of 10 ms to 25 s, the sample was then mixed 1:1 with a quenching buffer (90 mM NaNO3, 50 mM TlNO3, 10 mM HEPES, pH 7), and ANTS fluorescence (ex. 360 nm, fluorescence above 420 nm) was recorded for 1 s. For each delay time, 5 repeat measurements were obtained. The data were collected using Applied Photophysics Pro-Data SX software. The fluorescence quenching traces were fit to a stretched exponential (Eq. 2a) and the rate of Tl^+ influx was determined at 2 ms (Eq. 2b).2a Ft=F∞+F0−F∞⋅e^−t/τ^β 2b kt=β/τ⋅2ms/τ^(β−1) where Ft, F∞, F0 are the fluorescence at time t, final fluorescence and initial fluorescence. τ is the time constant, β the stretched exponential factor, and kt the calculated rate of Tl^+ influx at 2 ms. The time course of desensitization was also fit to a double exponential and a weighted time constant was calculated as was done for the patch-clamp data using Origin 2019b. All replicates were taken from independent samples.
Acceptor liposomes were prepared as described in the Stopped-flow fluorescence recordings section until completion of the extrusion step. The preparation was scaled up 2x to produce samples for the no-exchange and exchange conditions. After extrusion and storage of the liposomes overnight at 13 °C, the double liposome preparation was split into two equal volume aliquots of ~1.5 ml. Using the excel spreadsheet provided by Markones et al.[44], donor POPG and methyl-β-cyclodextrin (MβCD, Sigma) concentrations and volumes were calculated to produce an outer leaflet POPG content of 25 mol% in the liposomes. The calculations assumed a ~6.66 mM lipid concentration and 1.5 mL volume of the acceptor liposome solution[44]. A MβCD-POPG (50% saturation of MβCD by POPG) solution was formed by combining 224 µL 7.5 mM POPG in Stopped-flow Buffer A, 650 µl 300 mM MβCD in Stopped-flow Buffer A, and 126 µL Stopped-flow Buffer A, which was then mixed at 50 °C and 1000 RPM for 20 min using an Eppendorf thermomixer. […]

[3] = 25 mol% in outer leaflet, 10 mM propylamine
[4] = 10 mM propylamine, delay 0.01 s
[5] = 10 mM propylamine, delay 0.05 s
[6] = 10 mM propylamine, delay 0.25 s

CCCN [propylamine]
time constant of TRP fluorescence decrease (WT ELIC [1]; 10 mM propylamine, DDM): 9.9 ± 0.6 ms
Normalized change in TRP fluorescence, Average (WT ELIC [1]; DDM, Propylamine 0.3 mM): 0.01079
Normalized change in TRP fluorescence, Average (WT ELIC [1]; DDM, Propylamine 1 mM): 0.08703
Normalized change in TRP fluorescence, Average (WT ELIC [1]; DDM, Propylamine 3 mM): 0.49
Normalized change in TRP fluorescence (WT ELIC [1]; DDM, Propylamine 3 mM): 0.3909 and 0.6901 and 0.389
Normalized change in TRP fluorescence, Average (WT ELIC [1]; DDM, Propylamine 10 mM): 0.7765
Normalized change in TRP fluorescence (WT ELIC [1]; DDM, Propylamine 10 mM): 0.6381 and 0.8944 and 0.797
Normalized change in TRP fluorescence, Average (WT ELIC [1]; DDM, Propylamine 30 mM): 0.9154
Normalized change in TRP fluorescence (WT ELIC [1]; DDM, Propylamine 30 mM): 0.9392 and 0.8561 and 0.951
Normalized change in TRP fluorescence, Average (WT ELIC [1]; DDM, Propylamine 100 mM): 1
Normalized change in TRP fluorescence (WT ELIC [1]; DDM, Propylamine 100 mM): 1
Hill n of normalized change in TRP fluorescence (WT ELIC [1]; ELIC in DDM): 1.6 ± 0.3
EC50 (WT ELIC [1]; ELIC in DDM, Hill fit, read-out: EC50 of normalized change in TRP fluorescence): 4.3 ± 0.8 mM
rate of decrease in tryptophan fluorescence relative to channel opening (fold faster) (WT ELIC [1]; vs Tl+ flux in 2:1:1 or POPC liposomes): 2–4 ×

CCCCCCCC/C=C\CCCCCCCC(=O)OC(COC(=O)CCCCCCCCCCCCCCC)COP(=O)(O)OCC(O)CO (centres unmarked) [POPG, 1-palmitoyl-2-oleoyl-phosphatidylglycerol]
time constant of desensitization (WT ELIC [2]; 25% POPG introduced to the outer leaflet): ~ 6 s
effect on peak agonist response (WT ELIC [2]; [3]): increased the peak agonist response approximately two-fold
effect on rate of desensitization (WT ELIC [2]; [3]): reduced the rate of desensitization
Tl+ flux quenching rate, Avg. (WT ELIC [2]; [4]): 18.3739
Tl+ flux quenching rate, Avg. (WT ELIC [2]; 10 mM propylamine, delay 0.025 s): 13.1397
Tl+ flux quenching rate, Avg. (WT ELIC [2]; [5]): 28.9905
Tl+ flux quenching rate, Avg. (WT ELIC [2]; 10 mM propylamine, delay 0.1 s): 40.2879
Tl+ flux quenching rate, Avg. (WT ELIC [2]; [6]): 49.694
Tl+ flux quenching rate, Avg. (WT ELIC [2]; 10 mM propylamine, delay 0.5 s): 74.7874
Tl+ flux quenching rate, Avg. (WT ELIC [2]; 10 mM propylamine, delay 1 s): 70.2446
Tl+ flux quenching rate, Avg. (WT ELIC [2]; 10 mM propylamine, delay 2.5 s): 59.7249
Tl+ flux quenching rate, Avg. (WT ELIC [2]; 10 mM propylamine, delay 5 s): 40.3668
Tl+ flux quenching rate, Avg. (WT ELIC [2]; 10 mM propylamine, delay 10 s): 38.6421
Tl+ flux quenching rate, Avg. (WT ELIC [2]; 10 mM propylamine, delay 25 s): 9.131
Tl+ flux quenching rate (WT ELIC [2]; [4]): 25.3857 and 14.5673 and 13.3121 and 20.2302
Tl+ flux quenching rate (WT ELIC [2]; [5]): 31.4624 and 22.583 and 30.1073 and 31.8092
Tl+ flux quenching rate (WT ELIC [2]; [6]): 55.8845 and 34.2232 and 67.362 and 41.3064
Tl+ flux quenching rate (WT ELIC [2]; 10 mM propylamine, delay 0.5 s): 114.141 and 61.2513 and 65.8238 and 57.9331
